Values quoted from earlier work as cited in US20060127506A1, “Compositions of S-adenosyl-L-methionine” (priority 2004, published 2006).
Values belong to the compound of their own block, whether it stands above or below them.

How the values were obtained:
[1] = test system: Other methyltransferases
[2] = test system: S-adenosyl-L-methionine-dependent methyltransferases
[3] = test system: nucleolar 2-O-methyltransferase; conditions: (S,S) vs (R,S) diastereomer
[4] = optical purity of 97-100% (Berna et al, US 20020010147)
[5] = oral; alcoholic liver cirrhosis; compared with placebo treated group
[6] = test system: beta-adrenergic; conditions: L-form vs D-enantiomer

extent of binding relative to (S,S)-S-adenosyl-L-methionine [1]: to the same extent
inhibition of enzyme-catalyzed transmethylation reactions [2]: potent inhibitor
Structure (SMILES): C[S@@+](CC[C@@H](N)C(=O)O)C[C@H]1O[C@@H](n2cnc3c(N)ncnc32)[C@H](O)[C@@H]1O [(R,S)-S-adenosyl-L-methionine]

tightness of enzyme binding relative to (R,S)-S-adenosyl-L-methionine [3]: 10 fold
time for which optical purity is sustained before epimerization begins again [4]: ≤ 4 months
Structure (SMILES): C[S@@+](CC[C@H](N)C(=O)O)C[C@H]1O[C@@H](n2cnc3c(N)ncnc32)[C@H](O)[C@@H]1O [(S,S)-S-adenosyl-L-methionine]

Structure (SMILES): C[S+](CC[C@H](N)C(=O)[O-])C[C@H]1O[C@@H](n2cnc3c(N)ncnc32)[C@H](O)[C@@H]1O (stereo partly drawn) [S-adenosyl-L-methionine]
overall mortality and/or progression to liver transplant [5]: 12%

Structure (SMILES): CC(C)NCC(O)COc1cccc2ccccc12 (stereo not drawn) [propranolol]
potency of L-form relative to D-enantiomer [6]: 100 times
